For assay [1], the system named is H3K27me3 mark in HeLa cells. Put plainly: H3K27me3 MSD Hela Assay. Conditions: read-out: H3K27me3_MSD_HeLa_ (EC50). Type of assay: cell-based. The procedure, abridged: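 HeLa cells treated with compound at various concentrations for 96 h at 37 °C, then lysed with high-salt extraction. H3K27me3 measured by MSD electrochemiluminescence immunoassay on total-H3 capture plates. Dose-dependent inhibition normalised to DMSO wells and fitted to curves.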

Assay [2] concerns H3K27me3 mark in HeLa cells. Description: H3K27me3 Alpha Hela Assay (AlphaLISA). Conditions: 72 hrs, read-out: H3K27me3_Alpha_HeLa_ (EC50). It counts as cell-based. The method in brief: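 HeLa cells (1,000/well) were treated with ten 3-fold compound doses for 72 h at 37 °C. After histone extraction, H3K27me3 was detected by AlphaLISA (anti-K27me3 acceptor beads, biotinylated anti-H3, streptavidin donor), with viability measured on a duplicate plate. Data were normalized to DMSO and curve-fitted.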
A general note: In Alpha technology, singlet oxygen from a donor bead excites a nearby acceptor bead.

In assay [3] the target is EZH2 (rPRC2) (Homo sapiens, UniProt Q15910). Put plainly: EZH2 assay: rPRC2, biotinylated oligonucleosomes, 3H SAM methyl transfer (FlashPlate scintillation). Conditions: biotinylated oligonucleosome substrate. It counts as biochemical.
EZH2 (rPRC2), sequence (Q15910 whole entry): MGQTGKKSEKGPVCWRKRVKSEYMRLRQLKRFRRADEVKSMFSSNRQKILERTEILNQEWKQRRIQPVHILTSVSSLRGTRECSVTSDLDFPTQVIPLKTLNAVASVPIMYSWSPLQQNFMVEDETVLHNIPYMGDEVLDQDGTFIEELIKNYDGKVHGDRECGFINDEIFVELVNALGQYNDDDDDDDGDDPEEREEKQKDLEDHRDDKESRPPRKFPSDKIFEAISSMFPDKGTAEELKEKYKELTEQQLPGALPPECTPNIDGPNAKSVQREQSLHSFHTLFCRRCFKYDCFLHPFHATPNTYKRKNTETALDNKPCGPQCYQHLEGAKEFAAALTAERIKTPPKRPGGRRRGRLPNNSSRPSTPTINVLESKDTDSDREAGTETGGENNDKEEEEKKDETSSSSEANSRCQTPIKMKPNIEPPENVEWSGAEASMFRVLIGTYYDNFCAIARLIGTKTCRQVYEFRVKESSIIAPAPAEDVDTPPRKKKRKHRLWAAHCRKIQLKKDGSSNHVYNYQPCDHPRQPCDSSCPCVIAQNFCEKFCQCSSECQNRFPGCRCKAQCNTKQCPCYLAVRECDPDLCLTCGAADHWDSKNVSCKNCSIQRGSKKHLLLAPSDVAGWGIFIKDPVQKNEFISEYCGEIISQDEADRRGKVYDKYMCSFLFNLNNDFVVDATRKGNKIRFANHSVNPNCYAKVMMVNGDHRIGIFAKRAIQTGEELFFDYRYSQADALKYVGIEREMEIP
EZH2 (rPRC2), sequence (O75530 whole entry partner): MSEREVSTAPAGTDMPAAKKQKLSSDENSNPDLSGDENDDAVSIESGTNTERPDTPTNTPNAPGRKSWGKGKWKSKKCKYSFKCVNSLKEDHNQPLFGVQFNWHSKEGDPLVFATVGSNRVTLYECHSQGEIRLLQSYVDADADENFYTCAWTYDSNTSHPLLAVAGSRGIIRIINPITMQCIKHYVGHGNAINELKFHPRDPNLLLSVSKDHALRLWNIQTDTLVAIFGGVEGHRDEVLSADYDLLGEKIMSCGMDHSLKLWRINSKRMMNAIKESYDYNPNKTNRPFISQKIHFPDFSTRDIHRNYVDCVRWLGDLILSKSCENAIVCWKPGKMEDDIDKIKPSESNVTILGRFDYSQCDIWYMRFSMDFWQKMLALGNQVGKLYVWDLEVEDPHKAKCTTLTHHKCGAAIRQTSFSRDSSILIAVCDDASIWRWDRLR
EZH2 (rPRC2), sequence (Q15022 whole entry partner): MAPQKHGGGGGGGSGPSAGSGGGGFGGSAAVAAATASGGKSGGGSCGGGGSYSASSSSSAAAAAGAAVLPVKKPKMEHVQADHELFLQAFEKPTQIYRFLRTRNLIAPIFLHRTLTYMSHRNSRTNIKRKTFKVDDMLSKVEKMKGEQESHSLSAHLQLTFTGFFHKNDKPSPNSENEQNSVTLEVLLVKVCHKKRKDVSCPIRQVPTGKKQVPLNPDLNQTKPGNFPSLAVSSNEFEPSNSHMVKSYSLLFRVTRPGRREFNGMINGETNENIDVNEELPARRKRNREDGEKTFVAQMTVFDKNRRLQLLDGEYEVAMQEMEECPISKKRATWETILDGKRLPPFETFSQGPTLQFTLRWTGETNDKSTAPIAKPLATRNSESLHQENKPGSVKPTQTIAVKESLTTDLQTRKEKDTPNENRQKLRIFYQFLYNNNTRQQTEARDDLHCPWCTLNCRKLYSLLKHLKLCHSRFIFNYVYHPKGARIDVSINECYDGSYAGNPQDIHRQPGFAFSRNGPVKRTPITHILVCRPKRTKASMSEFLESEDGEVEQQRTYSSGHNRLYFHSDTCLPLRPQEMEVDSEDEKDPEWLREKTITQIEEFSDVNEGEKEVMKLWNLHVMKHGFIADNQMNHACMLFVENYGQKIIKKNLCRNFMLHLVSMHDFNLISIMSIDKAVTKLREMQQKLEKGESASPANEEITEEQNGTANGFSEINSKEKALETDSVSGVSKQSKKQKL
Assay [4] deals with Y641N EZH2 (Homo sapiens, UniProt Q15910, Y641N). Put plainly: Y641N EZH2 assay: as EZH2 assay, with reconstituted H3K27Me2 oligonucleosomes as substrate. It counts as biochemical.
Y641N EZH2, sequence (Q15910 whole entry Y641N): as the sequence (Q15910 whole entry) above, with Y641N counted along it
Y641N EZH2, sequence (O75530 whole entry partner): as the sequence (O75530 whole entry partner) above
Y641N EZH2, sequence (Q15022 whole entry partner): as the sequence (Q15022 whole entry partner) above
Setting [5] is: Y641N EZH2 IC50, Y641N mutant EZH2, H3K27Me2 oligonucleosome substrate.
Where [6] appears, read: EZH2 IC50, wild-type EZH2 (rPRC2).

This is an account of results in patent US9371331B2, “Modulators of methyl modifying enzymes, compositions and uses thereof” (Constellation Pharmaceuticals, Inc., priority 2012, dated 2016).

Structures can show the parent of a compound that is named as a salt. Where two headings read alike, the source gives them in different places.

By EC50 is commonly meant the midpoint of the concentration-response curve. Broadly, the IC50 is the concentration that inhibits the measured activity by half. `COCC(C)n1c(C)c(C(=O)NCc2c(OC)cc(C)[nH]c2=O)c2ccccc21` (single isomer, unassigned) [Compound 224, N-((4-methoxy-6-methyl-2-oxo-1,2-dihydropyridin-3-yl)methyl)-1-(1-methoxypropan-2-yl)-2-methyl-1H-indole-3-carboxamide]: the EC50 in assay [1] (Homo sapiens, HeLa, 96 h) was < 400 nM; in assay [2] (Homo sapiens) it was < 400 nM. In addition, the IC50 was < 100 nM in assay [3] (read-out: EZH2 IC50, wild-type EZH2 (rPRC2)) and < 100 nM in assay [4] (setting [5]).

Take `COc1cc(C)[nH]c(=O)c1CNC(=O)c1c(C)n(C(C)C(C)OC)c2ncccc12` (single isomer, unassigned) [Compound 261, N-((4-methoxy-6-methyl-2-oxo-1,2-dihydropyridin-3-yl)methyl)-1-((2R or 2S, 3R or 3S)-3-methoxybutan-2-yl)-2-methyl-1H-pyrrolo[2,3-b]pyridine-3-carboxamide]: the EC50 was < 400 nM in assay [1] (Homo sapiens, HeLa, 96 h) and < 400 nM in assay [2] (Homo sapiens). In addition, the half-maximal inhibitory concentration (IC50) in assay [3] (setting [6]) and in assay [4] (setting [5]) was < 100 nM in each case.

As for `COc1cc(C)[nH]c(=O)c1CNC(=O)c1c(C)n(C(C)C2CCOCC2)c2ncccc12` (single isomer, unassigned) [Compound 288, (R or S)-N-((4-Methoxy-6-methyl-2-oxo-1,2-dihydropyridin-3-yl)methyl)-2-methyl-1-(1-(tetrahydro-2H-pyran-4-yl)ethyl)-1H-pyrrolo[2,3-b]pyridine-3-carboxamide], the EC50 in assay [1] (Homo sapiens, HeLa, 96 h) is 400 to 2000 nM; in assay [2] (Homo sapiens) it was < 400 nM. Also, the IC50 in assay [3] (setting [6]) and in assay [4] (setting [5]) was < 100 nM throughout.

In the case of `COc1cc(C)[nH]c(=O)c1CNC(=O)c1c(C)n(C(C)C2CCOCC2)c2cc(F)ccc12` (single isomer, unassigned) [Compound 300, (R or S)-6-fluoro-N-((4-methoxy-6-methyl-2-oxo-1,2-dihydropyridin-3-yl)methyl)-2-methyl-1-(1-(tetrahydro-2H-pyran-4-yl)ethyl)-1 H-indole-3-carboxamide], the EC50 is < 400 nM in assay [1] (Homo sapiens, HeLa, 96 h) and < 400 nM in assay [2] (Homo sapiens). In addition, the IC50 in assay [3] (setting [6]) and in assay [4] (setting [5]) was < 100 nM in each case.

Consider `COc1cc(C)[nH]c(=O)c1CNC(=O)c1c(C)n(C(C)C2CCNCC2)c2ccccc12` (single isomer, unassigned) [Compound 326, (R or S)—N-((4-methoxy-6-methyl-2-oxo-1,2-dihydropyridin-3-yl)methyl)-2-methyl-1-(1-(piperidin-4-yl)ethyl)-1H-indole-3-carboxamide hydrochloride], for which the EC50 is 400 to 2000 nM in assay [1] (Homo sapiens, HeLa, 96 h) and 400 to 2000 nM in assay [2] (Homo sapiens). Moreover, the IC50 in assay [3] (setting [6]) and in assay [4] (setting [5]) was < 100 nM in each case.

For `Cc1cc(C)c(CNC(=O)c2c(C)n(C(C)c3cccc(C#N)c3)c3ccccc23)c(=O)[nH]1` (stereo not shown) [Compound 187, 1-(1-(3-cyanophenyl)ethyl)-N-((4,6-dimethyl-2-oxo-1,2-dihydropyridin-3-yl)methyl)-2-methyl-1H-indole-3-carboxamide], the concentration giving a half-maximal response (EC50) was 400 to 2000 nM in assay [1] (Homo sapiens, HeLa, 96 h) and 400 to 2000 nM in assay [2] (Homo sapiens). The figures for the IC50 in assay [3] (setting [6]) and in assay [4] (setting [5]) were < 100 nM and 100 to 1000 nM, respectively.

“(±)-1-(1-(4,4-difluorocyclohexyl)ethyl)-N-((4-methoxy-6-methyl-2-oxo-1,2-dihydropyridin-3-yl)methyl)-2-methyl-1H-indole-3-carboxamide [Compound 304]”: the EC50 was < 400 nM in assay [1] (HeLa cells, MSD, 96 hours) and < 400 nM in assay [2]. The IC50 in assay [3] (wild-type EZH2 (rPRC2), read-out: EZH2 IC50) is < 100 nM; in assay [4] (Y641N mutant EZH2, H3K27Me2 oligonucleosome substrate, read-out: Y641N EZH2 IC50), < 100 nM.
